{
  "source": "paper PMC12136037",
  "about": "“Type II kinase inhibitors that target Parkinson’s disease–associated LRRK2” (Science Advances, 2025)",
  "system": "LRRK2 S935 phosphorylation",
  "experiment": "Western blot of LRRK2 biomarker site pS935 in transfected 293T cells",
  "assay_type": "cell-based, human",
  "method": "For all in cell kinase assays, after 48 hours, transfected cells were treated with either DMSO (control) or the indicated inhibitors for 4 hours at 37°C and 5% CO2. Following treatments, cells were washed three times with ice cold PBS. Cells were then lysed in ice cold radioimmunoprecipitation assay (RIPA) lysis buffer [50 mM tris (pH 8.0), 150 mM NaCl, 1% Triton X-100, 0.1% SDS, 0.5% sodium deoxycholate, and 1 mM DTT] in the presence of complete mini EASYpack protease inhibitor cocktail and the PhosSTOP EASYpack phosphatase inhibitor cocktail (Roche). Resuspended and lysed cells were clarified by centrifugation at 13,000g for 15 min at 4°C. NuPAGE LDS Sample Buffer (1×) and NuPAGE Sample Reducing Agent (1×; Invitrogen) were added to the clarified supernatants, and the samples were boiled at 95°C for 5 min and spun down at 13,000g for 10 min. For Western blotting, 15 μl of sample was loaded into a NuPAGE 4 to 12% gradient bis-tris gel (Invitrogen) and run at 120 V for 75 min before transfer to polyvinylidene difluoride transfer membrane (0.45-μm pore size, Millipore) for 240 min at 80 V at 4°C. The membrane was blocked in 5% milk in 1× Tris-buffered saline (TBS) [20 mM tris (pH 8.0) and 150 mM NaCl] for 1 hour shaking at room temperature. Primary antibodies [monoclonal rabbit anti-LRRK2 (Abcam, ab133474; RRID: AB_2713963), polyclonal rabbit anti-LRRK1 (Abcam, ab228666), monoclonal rabbit anti-LRRK2 phospho-S935 (Abcam, ab133450; RRID: AB_2732035), monoclonal rabbit anti-Rab8a phospho-T72 (Abcam, ab230260; RRID: AB_2814988), monoclonal rabbit anti-Rab7 phospho-S72 (Abcam, ab302494; RRID: AB_2933985), monoclonal rabbit anti–glyceraldehyde-3-phosphate dehydrogenase (GAPDH; Cell Signalling Technology, 2118; RRID: AB_561053), and monoclonal mouse anti-GFP (Santa Cruz Biotechnology, sc-9996; RRID: AB_627695)] were diluted in 5% milk in TBS and incubated with membrane for 16 hours at 4°C. Following incubation, membranes were washed three times with 1× TBS-T [20 mM tris (pH 8.0), 150 mM NaCl, and 0.1% Tween 20] before incubation with IRDye 680RD goat anti-rabbit IgG (LI-COR, 926-68071; RRID: AB_10956166) and IRDye 800CW goat anti-mouse IgG (LI-COR, 926-32210; RRID: AB_621842) secondary antibodies in 5% milk in 1× TBS for 1 hour at room temperature. Membranes were then washed three times in 1× TBS-T before imaging on Li-COR Odyssey CLx controlled by Imaging Studio software (www.licorbio.com/image-studio, RRID:SCR_015795). Image processing and quantification were performed in ImageJ version 2.14.0 (National Institutes of Health; https://imagej.net/, RRID:SCR_003070). The signal intensity of each band was assessed using the Analyze>Gels tool. The band intensity for phosphorylated LRRK2 was measured and compared to total LRRK2 levels (run under identical conditions on a separate gel). Band intensity for phosphorylated Rab7 or Rab8a was measured and compared against total GFP-Rab7 or GFP-Rab8a (using anti-GFP antibody) and LRRK1/LRRK2 levels as appropriate. Comparative statistical analysis of phosphorylation levels was analyzed using a one-way analysis of variance (ANOVA) and corrected using Tukey’s multiple comparisons test in GraphPad Prism 10 (www.graphpad.com/, RRID:SCR_002798). (For current step-by-step protocol for LRRK transfection and Western blotting, see dx.doi.org/10.17504/protocols.io.kxygx9bozg8j/v1.)",
  "note": "Where “and” joins values, the source holds several entries; their conditions need not be identical. Identical values can stand only once.",
  "data": [
    {"smiles": "C[C@@H]1CN(c2cc(-c3n[nH]c4ccc(OC5(C)CC5)cc34)ncn2)C[C@H](C)O1", "note": "[MLi-2, reference compound]", "values": [
      {"measurement": "pS935 LRRK2/LRRK2 normalized to DMSO, Mean", "setting": "500 nM, 4 h, 3 replicates", "result": 0.05291},
      {"measurement": "pS935 LRRK2/LRRK2 normalized to DMSO", "setting": "500 nM, 4 h, individual Western blots", "result": "0.09836 and 0.02387 and 0.03651"},
      {"measurement": "effect on phosphorylation of LRRK2 S935", "setting": "293T cells, MLi-2 500 nM", "result": "almost complete dephosphorylation"}
    ]}
  ]
}
